Measured values: PubChem BioAssay AID2060896 (Molecular Pharmacology Branch, DTP, NCI, 2025)
One block for each compound: values may come before it.

System: 941728-121-R-J1-PDC complex spheroid viability
Assay: Anticancer human tumor 941728-121-R-J1-PDC patient-derived lung adenocarcinoma cell line growth inhibition [RAS]
Conditions: for IC50: curve of first compound; for viability, T/C: stronger effect = lower value
Procedure, shortened: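 Tumour cells grown as complex spheroids with HUVEC endothelial cells and mesenchymal stem cells, treated with RAS pathway inhibitor combinations. Each agent spans half-log steps from near clinical Cmax, or 10 microM where Cmax is unknown.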

[1] = second compound 0.0316 µM, first compound 0.0316 µM
[2] = second compound 0.0316 µM, first compound 0.1 µM
[3] = second compound 0.1 µM, first compound 0.0316 µM
[4] = second compound 0.1 µM, first compound 0.1 µM
[5] = second compound 0.316 µM, first compound 0.0316 µM
[6] = second compound 0.316 µM, first compound 0.1 µM
[7] = second compound 1 µM, first compound 0.0316 µM
[8] = second compound 1 µM, first compound 0.1 µM
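Note: spheroids exposed to compounds for 7 days before readout.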
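Throughout, for viability, T/C: 100% = DMSO vehicle control viability.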

IC50 (second compound 0.00316 µM): < 0.316 nM
IC50 (second compound 0.01 µM): < 0.316 nM
IC50 (second compound 0.0316 µM): < 0.316 nM
IC50 (second compound 0.1 µM): < 0.316 nM
IC50 (second compound 0.316 µM): < 0.316 nM
IC50 (second compound 1 µM): < 0.316 nM
Compound: CC(C)n1nc(-c2ccc3oc(N)nc3c2)c2c(N)ncnc21 + C=CC(=O)N1CCN(c2nc(OCC3CCCN3C)nc3c(F)c(-c4nc(N)cc(C)c4C(F)(F)F)c(Cl)cc23)C(C)C1
viability, T/C (second compound 0.00316 µM, first compound 0.000316 µM): 19.5%
viability, T/C (second compound 0.00316 µM, first compound 0.001 µM): 21.4%
viability, T/C (second compound 0.00316 µM, first compound 0.00316 µM): 19.4%
viability, T/C (second compound 0.00316 µM, first compound 0.01 µM): 14.4%
viability, T/C (second compound 0.00316 µM, first compound 0.0316 µM): 11.6%
viability, T/C (second compound 0.00316 µM, first compound 0.1 µM): 9.02%
viability, T/C (second compound 0.01 µM, first compound 0.000316 µM): 19.6%
viability, T/C (second compound 0.01 µM, first compound 0.001 µM): 21.8%
viability, T/C (second compound 0.01 µM, first compound 0.00316 µM): 17.9%
viability, T/C (second compound 0.01 µM, first compound 0.01 µM): 14.4%
viability, T/C (second compound 0.01 µM, first compound 0.0316 µM): 10.7%
viability, T/C (second compound 0.01 µM, first compound 0.1 µM): 6.76%
viability, T/C (second compound 0.0316 µM, first compound 0.000316 µM): 22.7%
viability, T/C (second compound 0.0316 µM, first compound 0.001 µM): 17.5%
viability, T/C (second compound 0.0316 µM, first compound 0.00316 µM): 19.2%
viability, T/C (second compound 0.0316 µM, first compound 0.01 µM): 14.4%
viability, T/C [1]: 10.2%
viability, T/C [2]: 7.17%
viability, T/C (second compound 0.1 µM, first compound 0.000316 µM): 22.1%
viability, T/C (second compound 0.1 µM, first compound 0.001 µM): 18.2%
viability, T/C (second compound 0.1 µM, first compound 0.00316 µM): 19.4%
viability, T/C (second compound 0.1 µM, first compound 0.01 µM): 11.9%
viability, T/C [3]: 10.1%
viability, T/C [4]: 7.39%
viability, T/C (second compound 0.316 µM, first compound 0.000316 µM): 19.4%
viability, T/C (second compound 0.316 µM, first compound 0.001 µM): 18%
viability, T/C (second compound 0.316 µM, first compound 0.00316 µM): 17.8%
viability, T/C (second compound 0.316 µM, first compound 0.01 µM): 14.7%
viability, T/C [5]: 9.18%
viability, T/C [6]: 8.16%
viability, T/C (second compound 1 µM, first compound 0.000316 µM): 19.5%
viability, T/C (second compound 1 µM, first compound 0.001 µM): 22.9%
viability, T/C (second compound 1 µM, first compound 0.00316 µM): 16.6%
viability, T/C (second compound 1 µM, first compound 0.01 µM): 13.4%
viability, T/C [7]: 11.6%
viability, T/C [8]: 8.02%

IC50 (second compound 0.000949 µM): < 3.16 nM
IC50 (second compound 0.003 µM): < 3.16 nM
IC50 (second compound 0.00949 µM): < 3.16 nM
IC50 (second compound 0.03 µM): < 3.16 nM
IC50 (second compound 0.0949 µM): < 3.16 nM
IC50 (second compound 0.3 µM): < 3.16 nM
Compound: Nc1ccn(C2OC(CO)C(O)C2(F)F)c(=O)n1 (stereo unspecified) + CCn1c(-c2cccnc2C(C)OC)c2c3cc(ccc31)N1CCOC(CC(NC(=O)C(C(C)C)N(C)C(=O)C3(F)CCN(C(=O)C#CC(C)(C)N(C)C)CC3)C(=O)N3CCCC(N3)C(=O)OCC(C)(C)C2)C1
viability, T/C (second compound 0.000949 µM, first compound 0.00316 µM): 23.9%
viability, T/C (second compound 0.000949 µM, first compound 0.01 µM): 20.1%
viability, T/C (second compound 0.000949 µM, first compound 0.0316 µM): 18.7%
viability, T/C (second compound 0.000949 µM, first compound 0.1 µM): 18.2%
viability, T/C (second compound 0.000949 µM, first compound 0.316 µM): 19.5%
viability, T/C (second compound 0.000949 µM, first compound 1 µM): 15.3%
viability, T/C (second compound 0.003 µM, first compound 0.00316 µM): 22%
viability, T/C (second compound 0.003 µM, first compound 0.01 µM): 18%
viability, T/C (second compound 0.003 µM, first compound 0.0316 µM): 16.9%
viability, T/C (second compound 0.003 µM, first compound 0.1 µM): 19.5%
viability, T/C (second compound 0.003 µM, first compound 0.316 µM): 18.4%
viability, T/C (second compound 0.003 µM, first compound 1 µM): 13.2%
viability, T/C (second compound 0.00949 µM, first compound 0.00316 µM): 22.1%
viability, T/C (second compound 0.00949 µM, first compound 0.01 µM): 15.5%
viability, T/C (second compound 0.00949 µM, first compound 0.0316 µM): 18.8%
viability, T/C (second compound 0.00949 µM, first compound 0.1 µM): 18.2%
viability, T/C (second compound 0.00949 µM, first compound 0.316 µM): 20.9%
viability, T/C (second compound 0.00949 µM, first compound 1 µM): 17%
viability, T/C (second compound 0.03 µM, first compound 0.00316 µM): 20.4%
viability, T/C (second compound 0.03 µM, first compound 0.01 µM): 20.4%
viability, T/C (second compound 0.03 µM, first compound 0.0316 µM): 21.4%
viability, T/C (second compound 0.03 µM, first compound 0.1 µM): 17.4%
viability, T/C (second compound 0.03 µM, first compound 0.316 µM): 14.5%
viability, T/C (second compound 0.03 µM, first compound 1 µM): 17.7%
viability, T/C (second compound 0.0949 µM, first compound 0.00316 µM): 21.6%
viability, T/C (second compound 0.0949 µM, first compound 0.01 µM): 22.1%
viability, T/C (second compound 0.0949 µM, first compound 0.0316 µM): 20.1%
viability, T/C (second compound 0.0949 µM, first compound 0.1 µM): 17.6%
viability, T/C (second compound 0.0949 µM, first compound 0.316 µM): 19.5%
viability, T/C (second compound 0.0949 µM, first compound 1 µM): 16.7%
viability, T/C (second compound 0.3 µM, first compound 0.00316 µM): 20.3%
viability, T/C (second compound 0.3 µM, first compound 0.01 µM): 20.6%
viability, T/C (second compound 0.3 µM, first compound 0.0316 µM): 17.6%
viability, T/C (second compound 0.3 µM, first compound 0.1 µM): 18.1%
viability, T/C (second compound 0.3 µM, first compound 0.316 µM): 16.6%
viability, T/C (second compound 0.3 µM, first compound 1 µM): 19.2%

IC50 (second compound 0.0316 µM): < 31.6 nM
IC50 (second compound 0.1 µM): < 31.6 nM
IC50 (second compound 0.316 µM): < 31.6 nM
IC50 (second compound 1 µM): < 31.6 nM
IC50 (second compound 3.16 µM): < 31.6 nM
IC50 (second compound 10 µM): < 31.6 nM
Compound: NC1c2ccccc2OC12CCN(c1cnc3c(N4CCCc5ncccc54)n[nH]c3n1)CC2 (stereo unspecified) + C#Cc1c(F)ccc2cc(O)cc(-c3ncc4c(N5CC6CCC(C5)N6)nc(OCC56CCCN5CC(F)C6)nc4c3F)c12
viability, T/C [1]: 37.8%
viability, T/C [2]: 34.7%
viability, T/C (second compound 0.0316 µM, first compound 0.316 µM): 30.6%
viability, T/C (second compound 0.0316 µM, first compound 1 µM): 35.9%
viability, T/C (second compound 0.0316 µM, first compound 3.16 µM): 35.5%
viability, T/C (second compound 0.0316 µM, first compound 10 µM): 43%
viability, T/C [3]: 34.8%
viability, T/C [4]: 33%
viability, T/C (second compound 0.1 µM, first compound 0.316 µM): 31.6%
viability, T/C (second compound 0.1 µM, first compound 1 µM): 35.6%
viability, T/C (second compound 0.1 µM, first compound 3.16 µM): 34.2%
viability, T/C (second compound 0.1 µM, first compound 10 µM): 36.5%
viability, T/C [5]: 30.3%
viability, T/C [6]: 30.8%
viability, T/C (second compound 0.316 µM, first compound 0.316 µM): 32.8%
viability, T/C (second compound 0.316 µM, first compound 1 µM): 29.8%
viability, T/C (second compound 0.316 µM, first compound 3.16 µM): 32%
viability, T/C (second compound 0.316 µM, first compound 10 µM): 37%
viability, T/C [7]: 28.5%
viability, T/C [8]: 27.6%
viability, T/C (second compound 1 µM, first compound 0.316 µM): 31.4%
viability, T/C (second compound 1 µM, first compound 1 µM): 29.4%
viability, T/C (second compound 1 µM, first compound 3.16 µM): 28.8%
viability, T/C (second compound 1 µM, first compound 10 µM): 29.7%
viability, T/C (second compound 3.16 µM, first compound 0.0316 µM): 24.1%
viability, T/C (second compound 3.16 µM, first compound 0.1 µM): 24%
viability, T/C (second compound 3.16 µM, first compound 0.316 µM): 24.4%
viability, T/C (second compound 3.16 µM, first compound 1 µM): 24.6%
viability, T/C (second compound 3.16 µM, first compound 3.16 µM): 23.4%
viability, T/C (second compound 3.16 µM, first compound 10 µM): 24.6%
viability, T/C (second compound 10 µM, first compound 0.0316 µM): 20.9%
viability, T/C (second compound 10 µM, first compound 0.1 µM): 18.3%
viability, T/C (second compound 10 µM, first compound 0.316 µM): 19.3%
viability, T/C (second compound 10 µM, first compound 1 µM): 18.8%
viability, T/C (second compound 10 µM, first compound 3.16 µM): 17.8%
viability, T/C (second compound 10 µM, first compound 10 µM): 18.4%
